Molecules are shown by their SMILES.

Series [1] concerns the target recombinant firefly luciferase (Photinus pyralis, UniProt P08659). Put plainly: biochemical. The settings on record: dose response; for Emax: maximum inhibition, read-out: rLuc inhibition dose response: Maximum inhibition (%); for IC50: read-out: rLuc inhibition dose response: IC50.
A short description of series [2]: HepG2 cytotoxicity screening (CellTiter-Glo). The settings on record: human, uninfected HepG2-A16-CD81 (EGFP) hepatocytes. For orientation: Cellular ATP, detected with luciferase, serves as a proxy for viable cell number.
Series [3] has as its system HepG2-A16-CD81 hepatocytes. As to the kind of experiment: HepG2 cytotoxicity screening (CellTiter-Glo). The settings on record: for HepG2 cytotoxicity 12pt dose response: Maximum inhibition (%): 12pt dose response.
Series [4] concerns P. berghei liver stage (PbLuc). Put plainly: P. berghei luciferase liver stage (PbLuc) assay in HepG2-A16-CD81 hepatocytes. Type of series: cell-based, Plasmodium berghei. The settings on record: Plasmodium berghei; for IC50: HepG2-A16-CD81, 12pt dose response, read-out: PbLuc 12pt dose response: IC50; for Emax: HepG2-A16-CD81, 48 h, 12pt dose response, maximum inhibition.

Sequence of recombinant firefly luciferase (P08659 whole entry): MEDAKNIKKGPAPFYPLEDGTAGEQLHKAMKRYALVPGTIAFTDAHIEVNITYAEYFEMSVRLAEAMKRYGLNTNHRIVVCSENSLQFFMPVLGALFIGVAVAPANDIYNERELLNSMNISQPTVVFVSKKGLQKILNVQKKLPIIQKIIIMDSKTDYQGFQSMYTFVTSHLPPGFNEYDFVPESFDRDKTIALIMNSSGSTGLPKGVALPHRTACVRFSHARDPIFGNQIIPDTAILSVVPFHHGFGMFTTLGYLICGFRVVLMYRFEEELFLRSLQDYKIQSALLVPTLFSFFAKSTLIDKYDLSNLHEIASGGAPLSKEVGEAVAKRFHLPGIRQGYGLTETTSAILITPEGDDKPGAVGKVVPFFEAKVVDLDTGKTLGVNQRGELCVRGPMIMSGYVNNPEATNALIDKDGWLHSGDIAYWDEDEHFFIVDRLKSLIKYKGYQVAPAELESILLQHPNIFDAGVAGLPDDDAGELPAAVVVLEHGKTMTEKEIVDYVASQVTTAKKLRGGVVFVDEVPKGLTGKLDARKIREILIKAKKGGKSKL

For the compound `O=C(NC1CCCC1)O[C@H]1COCCN(c2nc3ccccc3s2)C1` [UCSD-0785020], in series [1], the Emax stood at 16.5% and the concentration for half-maximal inhibition (IC50) (usually the concentration at which inhibition is half-maximal) is above 25 µM. Also, in series [2], the IC50 is above 25 µM and the inhibition – broadly, the change of the read-out against control, counted positive when it falls – at 2 µM was 0.48%. Also, the “HepG2 cytotoxicity 12pt dose response: Maximum inhibition (%)” value in series [3] is given as -1.51%. Also, in series [4], the IC50 stood at 6.66 µM and the Emax came out at 88.1%.
In the case of `CCS(=O)(=O)N1CCc2ccc(NC(=O)Nc3cccc(C)c3)cc21` [UCSD-0785768], in series [1], the Emax was 36.5% and the IC50 was above 50 µM. Moreover, in series [2], the IC50 was above 16.6 µM and the inhibition at 2 µM worked out at 27.5%. The “HepG2 cytotoxicity 12pt dose response: Maximum inhibition (%)” value in series [3] was 52.3%. Moreover, in series [4], the IC50 was 3.66 µM and the Emax turned out to be 77.6%.
Regarding `CCS(=O)(=O)N1CCc2ccc(NC(=O)Nc3cccc(F)c3)cc21` [UCSD-0785772], in series [1], the Emax turned out to be 22.1% and the IC50 was above 25 µM. Also, in series [2], the IC50 is 17.8 µM and the inhibition at 2 µM came out at 17.6%. Moreover, the “HepG2 cytotoxicity 12pt dose response: Maximum inhibition (%)” value in series [3] was 50.2%. Besides, in series [4], the IC50 was found to be 9.31 µM and the Emax is 90.3%.
With `Cc1nc(NC(=O)c2c(-n3cnnn3)sc3c2CCCC3)sc1C` [UCSD-0786506], in series [1], the Emax worked out at 15% and the IC50 was above 50 µM. For the same compound, in series [2], the IC50 was above 50 µM and the inhibition at 2 µM came out at 10.9%. Besides, the “HepG2 cytotoxicity 12pt dose response: Maximum inhibition (%)” value in series [3] worked out at 4.09%. In addition, in series [4], the IC50 worked out at 0.253 µM and the Emax stood at 88.6%.
With `Cc1nc(NC(=O)c2c(-n3cnnn3)sc(C)c2C)sc1C` [UCSD-0786548], in series [1], the Emax turned out to be 1.63% and the IC50 was above 25 µM. In series [2], the half-maximal inhibitory concentration (IC50) was above 25 µM and the inhibition at 2 µM amounted to 4.63%. In addition, the “HepG2 cytotoxicity 12pt dose response: Maximum inhibition (%)” value in series [3] came to 8.84%. For the same compound, in series [4], the IC50 came to 0.0144 µM.
In the case of `CC(C)Cn1ccc2c(NC(=O)c3n[nH]c4c3CCC4)cccc21` [UCSD-0786893], the Emax in series [1] turned out to be 38.5%. The IC50 in series [1] is above 25 µM; in series [2], above 25 µM; in series [4] it was 13.6 µM. Further, in series [3] (2uM, primary screen), the “HepG2 Cytotoxicity primary screen (2uM): % Inhibition” value came to 3.16%. Moreover, in series [3], the “HepG2 cytotoxicity 12pt dose response: Maximum inhibition (%)” value came to 32.3%.
As for `CCCc1cc(=O)[nH]c(-n2nc(C3CC3)cc2N)n1` [UCSD-0786964], in series [1], the Emax is 12.2% and the IC50 is above 25 µM. In addition, in series [2], the IC50 came to 20.5 µM and the inhibition at 2 µM was -26.2%. Also, the “HepG2 cytotoxicity 12pt dose response: Maximum inhibition (%)” value in series [3] is listed as 75.4%. The IC50 in series [4] was 4.69 µM.
Turning to `CC(C)c1cc(=O)[nH]c(-n2nc(C3CC3)cc2N)n1` [UCSD-0786965], in series [1], the Emax stood at 1.26% and the IC50 is above 25 µM. Also, in series [2], the IC50 was 18.9 µM and the inhibition at 2 µM came out at 3.79%. In addition, the “HepG2 cytotoxicity 12pt dose response: Maximum inhibition (%)” value in series [3] was determined as 73.6%. In addition, in series [4], the IC50 came to 1.61 µM and the Emax is 83%.
With `Cc1cc(NC(=O)C(C)C)n(-c2nc(C)c(C)c(=O)[nH]2)n1` [UCSD-0786977], the values for the Emax in series [1] and in series [4] were 12.4% and 100%, respectively. The IC50 in series [1] was above 50 µM; in series [2], above 25 µM; in series [4], 0.129 µM. Further, the “HepG2 cytotoxicity 12pt dose response: Maximum inhibition (%)” value in series [3] is on record as 36.8%.
Turning to `Cc1cc(C(=O)N2CCN(c3nc4c(C(C)C)cccc4s3)CC2)no1` [UCSD-0787009], the Emax in series [1] came to 34.2%; in series [4] it was 98.9%. The IC50 in series [1] was above 50 µM; in series [2] it was above 25 µM; in series [4] it was 0.822 µM. Besides, the “HepG2 cytotoxicity 12pt dose response: Maximum inhibition (%)” value in series [3] is recorded as 1.29%.
On to `Cc1cc(C(=O)N2CCN(c3nc4c(C(C)C)cccc4s3)CC2)on1` [UCSD-0787150], for which the values for the Emax in series [1] and in series [4] were 11.6% and 101%, respectively. Besides, the IC50 is above 50 µM in series [1], above 25 µM in series [2] and 4 µM in series [4]. For the same compound, the “HepG2 cytotoxicity 12pt dose response: Maximum inhibition (%)” value in series [3] amounted to 21.7%.
